Results: patent US11149054B2, “Oxysterols and methods of use thereof” (Sage Therapeutics, Inc., priority 2016, dated 2021)
pEC50: −log10 of the molar value. Read-outs that look alike come from different tables or passages of the source.

Tests used:
[1] = molecular target: GluN2B glutamate receptors (Homo sapiens (Human), UniProt Q05586+Q13224); assay: Whole-cell patch clamp of mammalian cells (Ionworks Barracuda), positive allosteric modulation, GluN2B; assay type: cell-based; conditions: for Emax: read-out: Avg Emax 2B (%)
Chain of GluN2B glutamate receptors (Q13224 27-1484, other chains not shown): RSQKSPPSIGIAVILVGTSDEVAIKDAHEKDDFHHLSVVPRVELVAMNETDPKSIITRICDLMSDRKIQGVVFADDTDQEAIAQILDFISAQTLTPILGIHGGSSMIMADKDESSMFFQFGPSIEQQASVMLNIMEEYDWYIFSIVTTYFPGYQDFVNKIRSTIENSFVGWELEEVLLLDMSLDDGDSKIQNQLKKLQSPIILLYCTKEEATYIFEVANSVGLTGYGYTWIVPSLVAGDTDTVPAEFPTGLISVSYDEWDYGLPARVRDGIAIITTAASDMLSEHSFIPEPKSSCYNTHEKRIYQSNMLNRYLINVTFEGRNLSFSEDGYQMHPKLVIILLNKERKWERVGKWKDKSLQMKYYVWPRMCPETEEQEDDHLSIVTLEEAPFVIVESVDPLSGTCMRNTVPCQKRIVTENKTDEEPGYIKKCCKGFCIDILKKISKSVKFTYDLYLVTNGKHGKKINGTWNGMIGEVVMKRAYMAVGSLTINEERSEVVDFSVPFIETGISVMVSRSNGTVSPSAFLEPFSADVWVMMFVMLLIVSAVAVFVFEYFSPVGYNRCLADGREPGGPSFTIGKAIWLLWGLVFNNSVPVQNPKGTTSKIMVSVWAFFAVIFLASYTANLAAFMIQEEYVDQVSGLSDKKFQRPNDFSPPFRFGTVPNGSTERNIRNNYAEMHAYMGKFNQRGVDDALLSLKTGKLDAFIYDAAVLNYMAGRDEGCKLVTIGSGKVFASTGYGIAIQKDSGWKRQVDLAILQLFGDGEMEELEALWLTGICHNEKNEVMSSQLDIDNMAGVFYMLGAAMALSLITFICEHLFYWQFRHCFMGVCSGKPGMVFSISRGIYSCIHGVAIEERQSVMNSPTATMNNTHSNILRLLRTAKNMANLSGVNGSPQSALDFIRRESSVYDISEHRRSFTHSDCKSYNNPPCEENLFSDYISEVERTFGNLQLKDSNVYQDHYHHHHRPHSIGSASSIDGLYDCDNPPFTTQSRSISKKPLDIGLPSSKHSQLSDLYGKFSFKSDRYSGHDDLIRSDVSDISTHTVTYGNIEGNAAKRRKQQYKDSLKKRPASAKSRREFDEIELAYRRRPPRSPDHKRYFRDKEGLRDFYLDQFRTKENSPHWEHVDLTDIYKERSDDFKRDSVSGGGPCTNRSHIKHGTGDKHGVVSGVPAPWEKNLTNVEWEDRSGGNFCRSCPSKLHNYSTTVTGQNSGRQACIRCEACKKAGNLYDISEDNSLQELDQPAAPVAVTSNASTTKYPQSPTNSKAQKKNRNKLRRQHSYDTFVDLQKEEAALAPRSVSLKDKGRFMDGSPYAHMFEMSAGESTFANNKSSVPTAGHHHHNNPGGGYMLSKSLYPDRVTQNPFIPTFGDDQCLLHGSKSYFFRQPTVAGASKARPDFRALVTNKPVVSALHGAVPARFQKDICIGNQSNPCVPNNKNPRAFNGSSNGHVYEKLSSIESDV
Method in brief: (§1)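 Perforated-patch whole-cell recording, holding −70 mV, −40 mV during application; Cs-based internal pH 7.2, external with 5 mM CaCl2 pH 7.4. Test article pre-applied alone 5 min, then co-applied with EC20 L-glutamate plus 30 μM glycine. EC50 from Hill fit of % activation over the EC20 current.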

[2] = molecular target: GlunN1/GluN2A glutamate receptors (Homo sapiens (Human), UniProt Q05586+Q12879); assay: Whole-cell patch clamp of mammalian cells (Ionworks Barracuda), positive allosteric modulation, GluN1/GluN2A; assay type: cell-based
Chain of GlunN1/GluN2A glutamate receptors (Q12879 23-1464, other chains not shown): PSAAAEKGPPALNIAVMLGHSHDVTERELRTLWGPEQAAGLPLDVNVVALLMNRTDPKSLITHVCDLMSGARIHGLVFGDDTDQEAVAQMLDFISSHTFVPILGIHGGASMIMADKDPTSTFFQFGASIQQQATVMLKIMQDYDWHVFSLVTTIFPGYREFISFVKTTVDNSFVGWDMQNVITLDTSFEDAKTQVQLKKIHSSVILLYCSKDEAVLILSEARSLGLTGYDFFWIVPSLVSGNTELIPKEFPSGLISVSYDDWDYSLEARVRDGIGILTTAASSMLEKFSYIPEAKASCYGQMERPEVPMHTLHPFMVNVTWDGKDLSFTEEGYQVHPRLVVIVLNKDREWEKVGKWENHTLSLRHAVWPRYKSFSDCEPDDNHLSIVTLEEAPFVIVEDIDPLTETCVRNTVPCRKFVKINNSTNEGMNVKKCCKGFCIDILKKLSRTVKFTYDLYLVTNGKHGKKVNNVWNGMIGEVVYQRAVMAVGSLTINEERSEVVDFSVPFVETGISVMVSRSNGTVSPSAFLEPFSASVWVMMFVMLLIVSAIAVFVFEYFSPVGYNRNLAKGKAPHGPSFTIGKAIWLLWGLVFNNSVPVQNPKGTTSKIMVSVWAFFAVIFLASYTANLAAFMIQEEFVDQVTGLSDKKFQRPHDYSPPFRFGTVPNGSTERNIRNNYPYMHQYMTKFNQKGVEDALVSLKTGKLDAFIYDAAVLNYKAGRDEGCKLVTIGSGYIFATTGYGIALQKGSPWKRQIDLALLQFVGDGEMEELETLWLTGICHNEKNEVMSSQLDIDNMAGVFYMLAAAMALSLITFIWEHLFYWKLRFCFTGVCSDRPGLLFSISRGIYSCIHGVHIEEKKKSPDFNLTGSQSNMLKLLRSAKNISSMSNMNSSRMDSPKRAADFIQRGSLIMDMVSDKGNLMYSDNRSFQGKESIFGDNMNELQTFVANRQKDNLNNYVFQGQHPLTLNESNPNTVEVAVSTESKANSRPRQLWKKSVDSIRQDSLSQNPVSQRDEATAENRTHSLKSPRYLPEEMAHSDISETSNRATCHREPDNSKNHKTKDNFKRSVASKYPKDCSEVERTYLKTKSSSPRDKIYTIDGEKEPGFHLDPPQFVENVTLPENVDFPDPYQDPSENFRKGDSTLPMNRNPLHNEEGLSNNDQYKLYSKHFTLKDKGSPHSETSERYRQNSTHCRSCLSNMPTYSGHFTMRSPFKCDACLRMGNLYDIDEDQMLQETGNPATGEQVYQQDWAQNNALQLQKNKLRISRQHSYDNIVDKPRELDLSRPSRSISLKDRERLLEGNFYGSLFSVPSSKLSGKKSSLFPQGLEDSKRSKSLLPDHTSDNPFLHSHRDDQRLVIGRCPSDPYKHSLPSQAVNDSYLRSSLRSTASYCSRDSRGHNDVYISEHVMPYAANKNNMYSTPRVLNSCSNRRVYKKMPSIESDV
Method in brief: as §1

[3] = % potentiation of current elicited with EC20 L-glutamate and 30 μM glycine
[4] = HEK293 cells, % potentiation of current elicited with EC20 L-glutamate and 30 μM glycine, read-out: Avg Emax 2A (%)
[5] = co-application with EC20 L-glutamate and 30 μM glycine, 8-point concentration-response, read-out: Avg EC50 2B
[6] = HEK293 cells, co-application with EC20 L-glutamate and 30 μM glycine, 8-point concentration-response, read-out: Avg EC50 2A
[7] = HEK293, read-out: Avg Emax 2A (%)

Compound: CC[C@]1(O)CC[C@@]2(C)C(=CC[C@H]3[C@@H]4CC[C@H]([C@H](C)CC[C@@H](O)Cc5ccccc5)[C@@]4(C)CC[C@@H]32)C1 [Compound 6052]
- pEC50 [1]: 6.63
- Emax [1, 3]: 92.2%
- pEC50 [2]: 6.37
- Emax [2, 4]: 102%

Compound: CC[C@]1(O)CC[C@H]2C(=CC[C@@H]3[C@@H]2CC[C@]2(C)[C@@H]([C@H](C)CCC4(O)CCOC4)CC[C@@H]32)C1 (some centres unmarked) [Compound 8689]
- pEC50 [1]: 6.76
- pEC50 [2]: 6.77

Compound: CC[C@]1(O)CC[C@H]2[C@@H](CC[C@@H]3[C@@H]2CC[C@]2(C)[C@@H]([C@H](C)CCC4(O)CCC(C)(C)CC4)CC[C@@H]32)C1 [Compound 8963]
- Emax [1, 3]: 55.9%
- pEC50 [1, 5]: < 5.00
- Emax [2, 4]: 8.4%
- pEC50 [2, 6]: < 5.00

Compound: CC[C@]1(O)CC[C@@]2(C)[C@@H](CC[C@@H]3[C@@H]2CC[C@]2(C)[C@@H]([C@H](C)CC[C@@H](O)c4ccccn4)CC[C@@H]32)C1 [Compound 7030]
- Emax [1, 3]: 74.7%
- Emax [2, 4]: 28.3%

Compound: CC[C@]1(O)CC[C@@]2(C)[C@@H](CC[C@@H]3[C@@H]2CC[C@]2(C)[C@@H]([C@H](C)CC[C@H](O)c4cccnc4)CC[C@@H]32)C1 [Compound 6754]
- Emax [1, 3]: 38.8%
- pEC50 [1, 5]: < 5.00
- Emax [2, 4]: 22.3%
- pEC50 [2, 6]: < 5.00

Compound: C[C@H](CC[C@H](O)C1CCCCC1)[C@H]1CC[C@H]2[C@@H]3CC[C@H]4C[C@](O)(C(F)(F)F)CC[C@]4(C)[C@H]3CC[C@]12C [Compound 4155]
- pEC50 [1]: 6.21
- Emax [1, 3]: 198%
- pEC50 [2]: 6.35
- Emax [2, 4]: 164%

Compound: CC[C@H]1CC[C@@](O)(CC[C@@H](C)[C@H]2CC[C@H]3[C@@H]4CC[C@H]5C[C@](O)(C(F)(F)F)CC[C@]5(C)[C@H]4CC[C@]23C)CC1 [Compound 4475]
- pEC50 [1]: 6.58
- Emax [1, 3]: 355%
- pEC50 [2]: 6.34
- Emax [2, 4]: 364%

Compound: C[C@H](CC[C@H](O)C1CCC1)[C@H]1CC[C@H]2[C@@H]3CC[C@H]4C[C@](O)(C(F)(F)F)CC[C@]4(C)[C@H]3CC[C@]12C [7−A]
- pEC50 [1]: 6.73
- Emax [1, 3]: 431%
- pEC50 [2]: 6.61
- Emax [2, 4]: 544%

Compound: CC(C)[C@H](O)CC[C@@H](C)[C@H]1CC[C@H]2[C@@H]3CC[C@H]4C[C@@](C)(O)CC[C@@H]4[C@H]3CC[C@]12C [Compound 1B75]
- Emax [1, 3]: 233%
- Emax [2, 4]: 279%

Compound: CC[C@]1(O)CC[C@@]2(C)[C@@H](CC[C@@H]3[C@@H]2CC[C@]2(C)[C@@H]([C@H](C)CC[C@@H](O)c4ccccc4)CC[C@@H]32)C1 [Compound 6571]
- pEC50 [1]: 6.57
- Emax [1, 3]: 241%
- pEC50 [2]: 6.72
- Emax [2, 4]: 158%

Compound: C[C@H](CCC1(O)CCC(F)(F)CC1)[C@H]1CC[C@H]2[C@@H]3CC[C@H]4C[C@](O)(C(F)(F)F)CC[C@]4(C)[C@H]3CC[C@]12C [Compound 8]
- pEC50 [1]: 6.43
- pEC50 [2]: 6.35

Compound: CC[C@]1(O)CC[C@H]2C(=CC[C@@H]3[C@@H]2CC[C@]2(C)[C@@H]([C@H](C)CC[C@]4(O)CCOC4)CC[C@@H]32)C1 [Compound 8603]
- pEC50 [1]: 7.12
- pEC50 [2]: 6.87

Compound: CC[C@]1(O)CC[C@@]2(C)C(=CC[C@H]3[C@@H]4CC[C@H]([C@H](C)CC[C@H](O)c5ccc(C#N)cc5)[C@@]4(C)CC[C@@H]32)C1 (single isomer, unassigned) [Compound 6681]
- pEC50 [1]: 6.44
- Emax [1, 3]: 165%
- pEC50 [2]: 6.44
- Emax [2, 4]: 172%

Compound: C[C@H](CCC(O)c1ccccc1)[C@H]1CC[C@H]2[C@@H]3CC=C4C[C@@](C)(O)CC[C@]4(C)[C@H]3CC[C@]12C (some centres unmarked) [Compound 356]
- pEC50 [1]: 6.03
- Emax [1, 3]: 156%
- pEC50 [2]: 6.38
- Emax [2, 4]: 59.6%

Compound: C[C@H](CCC1(O)CCCCC1)[C@H]1CC[C@H]2[C@@H]3CC[C@H]4C[C@](O)(C(F)(F)F)CC[C@]4(C)[C@H]3CC[C@]12C [Compound 4023]
- pEC50 [1]: 6.39
- Emax [1, 3]: 418%
- pEC50 [2]: 6.29
- Emax [2, 4]: 322%

Compound: CC[C@]1(O)CC[C@H]2C(=CC[C@@H]3[C@@H]2CC[C@]2(C)[C@@H]([C@H](C)CCC(C)(C)O)CC[C@@H]32)C1 [Compound 780]
- Emax [1, 3]: 170%
- pEC50 [1, 5]: 6.58
- Emax [2, 4]: 132%
- pEC50 [2, 6]: 6.47

Compound: CC[C@]1(O)CC[C@H]2C(=CC[C@@H]3[C@@H]2CC[C@]2(C)[C@@H]([C@H](C)CCCC4(O)CC4)CC[C@@H]32)C1 [Compound 10790]
- Emax [1, 3]: 246%
- pEC50 [1, 5]: 6.57
- Emax [2, 4]: 160%
- pEC50 [2, 6]: 6.69

Compound: C[C@H](CCC(O)C1CCC1)[C@H]1CC[C@H]2[C@@H]3CC[C@H]4C[C@](O)(C(F)(F)F)CC[C@]4(C)[C@H]3CC[C@]12C (some centres unmarked) [Compound 7]
- Emax [1, 3]: 484%
- pEC50 [1, 5]: 6.54
- Emax [2, 4]: 516%
- pEC50 [2, 6]: 6.52

Compound: CC[C@]1(O)CC[C@@]2(C)C(=CC[C@H]3[C@@H]4CC[C@H]([C@H](C)CC[C@@H](O)c5cccc(C#N)c5)[C@@]4(C)CC[C@@H]32)C1 [Compound 6997]
- pEC50 [1]: 6.38
- Emax [1, 3]: 315%
- pEC50 [2]: 6.43
- Emax [2, 4]: 327%

Compound: C[C@H](CC[C@](C)(O)C(F)(F)F)[C@H]1CC[C@H]2[C@@H]3CC[C@H]4C[C@](O)(C(F)(F)F)CC[C@]4(C)[C@H]3CC[C@]12C [Compound 4]
- pEC50 [1]: 6.67
- Emax [1, 3]: 463%
- pEC50 [2]: 6.70
- Emax [2, 4]: 663%

Compound: CC[C@]1(O)CC[C@@]2(C)C(=CC[C@H]3[C@@H]4CC[C@H]([C@H](C)CC[C@H](O)c5ccccc5F)[C@@]4(C)CC[C@@H]32)C1 (single isomer, unassigned) [Compound 7281]
- pEC50 [1]: 6.52
- pEC50 [2]: 6.60

Compound: CC[C@]1(O)CC[C@@]2(C)C(=CC[C@H]3[C@@H]4CC[C@H]([C@H](C)CC[C@H](O)c5cccnc5)[C@@]4(C)CC[C@@H]32)C1 [Compound 6458]
- pEC50 [1]: 6.03
- Emax [1, 3]: 79.4%
- pEC50 [2]: < 5.00
- Emax [2, 4]: 30.9%

Compound: C[C@H](CC[C@H](O)C(C)(C)C)[C@H]1CC[C@H]2[C@@H]3CC=C4C[C@](O)(C(F)(F)F)CC[C@]4(C)[C@H]3CC[C@]12C [Compound 3507]
- pEC50 [1]: 6.72
- pEC50 [2]: 6.78

Compound: C[C@H](CC[C@@H](O)C1CCC1)[C@H]1CC[C@H]2[C@@H]3CC[C@H]4C[C@](O)(C(F)(F)F)CC[C@]4(C)[C@H]3CC[C@]12C [7−B]
- pEC50 [1]: 6.51
- Emax [1, 3]: 352%
- pEC50 [2]: 6.46
- Emax [2, 4]: 356%

Compound: C[C@H](CCC(O)C(C)(C)C)[C@H]1CC[C@H]2[C@@H]3CC=C4C[C@](O)(C(F)(F)F)CC[C@]4(C)[C@H]3CC[C@]12C (some centres unmarked) [Compound 2500]
- pEC50 [1]: 7.04
- pEC50 [2]: 7.20

Compound: C[C@H](CCCO)[C@H]1CC[C@H]2[C@@H]3CC[C@H]4C[C@](O)(C(F)(F)F)CC[C@]4(C)[C@H]3CC[C@]12C [Compound 2499]
- pEC50 [1]: 6.12
- Emax [1, 3]: 238%
- pEC50 [2]: 6.11
- Emax [2, 4]: 180%

Compound: C[C@H](CCC1(O)CCOC1)[C@H]1CC[C@H]2[C@@H]3CC[C@H]4C[C@](O)(C(F)(F)F)CC[C@]4(C)[C@H]3CC[C@]12C (some centres unmarked) [Compound 1967]
- pEC50 [1]: 6.95
- Emax [1, 3]: 374%
- pEC50 [2]: 6.77
- Emax [2, 4]: 347%

Compound: C[C@H](CC[C@](C)(O)C(F)(F)F)[C@H]1CC[C@H]2[C@@H]3CC=C4C[C@](O)(C(F)(F)F)CC[C@]4(C)[C@H]3CC[C@]12C [Compound 3035]
- pEC50 [1]: 7.12
- pEC50 [2]: 7.21

Compound: C[C@H](CCCC1(O)CCC(F)(F)CC1)[C@H]1CC[C@H]2[C@@H]3CC[C@H]4C[C@](O)(C(F)(F)F)CC[C@]4(C)[C@H]3CC[C@]12C [Compound 11786]
- Emax [1, 3]: 151%
- pEC50 [1, 5]: 6.00
- Emax [2, 4]: 152%
- pEC50 [2, 6]: 6.23

Compound: CC[C@]1(O)CC[C@H]2C(=CC[C@@H]3[C@@H]2CC[C@]2(C)[C@@H]([C@H](C)CCC4(O)CCC(C)(C)CC4)CC[C@@H]32)C1 [Compound 8946]
- pEC50 [1]: 5.87
- Emax [1, 3]: 231%
- pEC50 [2]: 5.80
- Emax [2, 4]: 263%

Compound: CC[C@]1(O)CC[C@@]2(C)C(=CC[C@H]3[C@@H]4CC[C@H]([C@H](C)CC[C@@H](O)c5ccc(F)cc5)[C@@]4(C)CC[C@@H]32)C1 [Compound 7147]
- pEC50 [1]: 7.04
- Emax [1]: 242%
- Emax [2, 7]: 200%

Compound: C[C@H](CCC(C)(O)c1ccccc1)[C@H]1CC[C@H]2[C@@H]3CC=C4C[C@@](C)(O)CC[C@]4(C)[C@H]3CC[C@]12C (some centres unmarked) [Compound 456]
- Emax [1]: 74.8%
- Emax [2, 7]: 53.4%

Compound: C[C@H](CCC[C@H](O)C(C)(C)C)[C@H]1CC[C@H]2[C@@H]3CC[C@H]4C[C@](O)(C(F)(F)F)CC[C@]4(C)[C@H]3CC[C@]12C [Compound 12156]
- Emax [1, 3]: 111%
- Emax [2, 4]: 43.2%

Compound: CC[C@]1(O)CC[C@H]2C(=CC[C@@H]3[C@@H]2CC[C@]2(C)[C@@H]([C@H](C)CCC[C@H](O)C(F)(F)F)CC[C@@H]32)C1 [Compound 9567]
- Emax [1, 3]: 124%
- pEC50 [1, 5]: 6.42
- Emax [2, 4]: 104%
- pEC50 [2, 6]: 6.48
